Structures can show the parent of a compound that is named as a salt. Where two headings read alike, the source gives them in different places.
Tests used:
Leishmania infantum = experiment: Growth inhibition of L. infantum; assay type: cell-based; conditions: mean ± standard deviation, n ≥ 2
Method: (§1) G. lamblia trophozoites (WBC6) were seeded into 96-well-plates in 0.2 mL Keister-medium containing 10^3 trophozoites per well in the presence of the compounds dissolved in dimethyl sulfoxide (DMSO, final concentration 0.25%) or with DMSO as a solvent control and incubated for 72 h at 37 °C in an anaerobic chamber (80% N2, 10% H2, 10% CO2). Then, plates were centrifuged (2 min, 1000 rpm), medium was removed, and cells were washed once with PBS containing 1 g/L glucose. Then, PBS-glucose containing 10 mg/L resazurin was added, and plates were incubated for up to 5 h at 37 °C. Fluorescence reading (ex 530 nm/em 590 nm) was performed at various time points, and the linear increase of fluorescence was used as a marker for cell viability. IC50 values were calculated using the logit-log algorithm and are given as mean values with 95%-confidence intervals ([Müller et al., 2020]; [Müller and Hemphill, 2013]; [Müller and Müller, 2019]). The assays for growth inhibition of T. b. brucei, T. cruzi, L. infantum, P. falciparum and MRC-5 (human lung fibroblasts MRC-5SV40) were previously described ([Blaazer et al., 2014]). PDE activity was determined exactly as described ([de Heuvel et al., 2021]; [Kunz et al., 2005], [2017b]). All assays were carried out in triplicates and no more than 20% substrate was hydrolyzed in all reactions. Compounds were dissolved in DMSO and the final DMSO concentration was 1% in all reaction mixes. Control reactions with DMSO alone were always included. Data were analyzed using the GraphPad Prism software package (v7.0, GraphPad, San Diego).

[1] = tested on: G. lamblia trophozoites (WBC6); experiment: Growth inhibition of G. lamblia trophozoites (WBC6), resazurin viability read-out; assay type: cell-based, Giardia lamblia; conditions: for IC50: Giardia duodenalis, WBC6 trophozoites, 72 h, anaerobic, mean ± standard error (95% CI, logit-log), quadruplicates, read-out: IC50 (nM) G.l.
Method: as §1
Figure S67. Representative drug susceptibility curves of G. lamblia WBC6. Trophozoites were grown anaerobically in the presence of various concentrations of 17 (red), 29 (blue) and the reference compound metronidazole (MET, black). After 72 h, growth of cells was monitored by a cell viability assay based on the reduction of resazurin to a pink fluorescent product. Measured fluorescence units were normalized to the DMSO control. Data points and error bars represent mean and standard error of 4 replicates.

Plasmodium falciparum = experiment: Growth inhibition of P. falciparum; assay type: cell-based
Method: as §1, with “[…]-medium” for “Keister-medium”, “([[…],” for “([Müller et al., 2020]; [Müller and Hemphill, 2013]; [Müller and Müller,”

[2] = tested on: Trypanosoma brucei brucei; experiment: Growth inhibition of T. b. brucei; assay type: cell-based; conditions: mean ± standard deviation, n ≥ 2
Method: as §1

[3] = tested on: MRC-5 (human lung fibroblasts MRC-5SV40); experiment: Cytotoxicity on MRC-5 cells; assay type: cell-based
Method: as §1, with “[…]-medium” for “Keister-medium”, “([[…],” for “([Müller et al., 2020]; [Müller and Hemphill, 2013]; [Müller and Müller,”

Trypanosoma cruzi = experiment: Growth inhibition of T. cruzi; assay type: cell-based; conditions: mean ± standard deviation, n ≥ 2
Method: as §1

[4] = mean ± standard deviation, n ≥ 2, read-out: IC50 (µM) P.f.
[5] = MRC5, mean ± standard deviation, n ≥ 2, read-out: IC50 (nM) MRC-5
[6] = MRC5, Table S1, mean ± standard deviation, n ≥ 2, read-out: IC50 (µM) MRC-5

| Structure (SMILES) | IC50 (Leishmania infantum) [µM] | IC50 [1] [nM] | fold higher anti-Giardia activity than metronidazole ([1]; versus metronidazole IC50 = 0.8 μM) | IC50 (Plasmodium falciparum; [4]) [µM] | IC50 [2] [µM] | IC50 [3, 5] [nM] | IC50 (Trypanosoma cruzi) [µM] | IC50 (Plasmodium falciparum; read-out: IC50 (µM) P.f.) [µM] | anti-Giardia activity (in words) [1] | difference in inhibiting growth of G. lamblia ([1]; 31 (non-nitro analogue) versus 23) | IC50 [3, 6] [nM] |
| --- | --- | --- | --- | --- | --- | --- | --- | --- | --- | --- | --- |
| CCCCCCCCCCCCCCCCOP(=O)([O-])OCC[N+](C)(C)C [Miltefosine, miltefosine, reference compound] | 10.3 ± 1.3 |  |  |  |  |  |  |  |  |  |  |
| COc1ccc(C2=NN(C3CCN(c4ccc5ncc([N+](=O)[O-])n5n4)CC3)C(=O)[C@H]3CC=CC[C@@H]23)cc1OCc1ccccn1 (relative stereo) [Compound 17, cis-4-(4-Methoxy-3-(pyridin-2-ylmethoxy)phenyl)-2-(1-(3-nitroimidazo[1,2-b]pyridazin-6-yl)piperidin-4-yl)-4a,5,8,8a-tetrahydrophthalazin-1(2H)-one] | 11.8 ± 7.5 | 0.5 ± 0.1 | > 1,000 fold | 2.3 ± 1.4 | 4.92 ± 1.6 | > 64000 | 2.1 ± 0.1 |  |  |  |  |
| CCN(CC)CCCC(C)Nc1ccnc2cc(Cl)ccc12 (stereo not shown) [Chloroquine, chloroquine, reference compound] |  |  |  |  |  |  |  | 0.1 ± 0.03 |  |  |  |
| O=[N+]([O-])c1cnc2ccc(N3CCC(c4ccccc4)CC3)nn12 [Compound 26, 3-Nitro-6-(4-phenylpiperidin-1-yl)imidazo[1,2-b]pyridazine] | > 64 | 8.2 ± 1 |  | > 64 | > 64 | > 64000 | > 64 |  |  |  |  |
| O=[N+]([O-])c1cnc2ccc(N3CCN(c4ccccc4)CC3)nn12 [Compound 27, 3-Nitro-6-(4-phenylpiperazin-1-yl)imidazo[1,2-b]pyridazine] | 35.3 ± 4 | 0.7 ± 0.1 |  | > 64 | > 64 | > 64000 | > 64 |  |  |  |  |
| Cc1ncc([N+](=O)[O-])n1CCO [metronidazole, reference compound] |  | 800 ± 100 |  |  |  |  |  |  |  |  |  |
| CN1CCN(c2ccc3ncc([N+](=O)[O-])n3n2)CC1 [Compound 24, 6-(4-Methylpiperazin-1-yl)-3-nitroimidazo[1,2-b]pyridazine formate] | > 64 | 144 ± 31 |  | > 64 | > 64 | > 64000 | 33.5 ± 1.1 |  |  |  |  |
| CN(C)c1ccc2ncc([N+](=O)[O-])n2n1 [Compound 21, N,N-Dimethyl-3-nitroimidazo[1,2-b]pyridazin-6-amine] | > 64 | 22 ± 3 |  | > 64 | > 64 | > 64000 | > 64 |  |  |  |  |
| COc1ccc(C2=NN(C3CCN(c4ccc5ncc([N+](=O)[O-])n5n4)CC3)C(=O)[C@H]3CC=CC[C@@H]23)cc1OCc1cccc([N+](=O)[O-])c1 (relative stereo) [Compound 13, cis-4-(4-Methoxy-3-((3-nitrobenzyl)oxy)phenyl)-2-(1-(3-nitroimidazo[1,2-b]pyridazin-6-yl)piperidin-4-yl)-4a,5,8,8a-tetrahydrophthalazin-1(2H)-one] | 32.5 | 1.2 ± 0.4 |  | 1.6 ± 0.7 | > 64 | > 64000 | > 64 |  |  |  |  |
| O=C(Cn1ccnc1[N+](=O)[O-])NCc1ccccc1 [benznidazole, reference compound] |  |  |  |  |  |  | 2.5 ± 0.4 |  |  |  |  |
| O=C(c1ccccc1)C1CCN(c2ccc3ncc([N+](=O)[O-])n3n2)CC1 [Compound 29, (1-(3-Nitroimidazo[1,2-b]pyridazin-6-yl)piperidin-4-yl)(phenyl)methanone] | 11.7 ± 1.4 | 1.1 ± 0.2 |  | > 64 | 34.4 ± 2.4 | > 64000 | 18.9 ± 13.9 |  |  |  |  |
| O=[N+]([O-])c1cnc2ccc(N3CCCCC3)nn12 [Compound 23, 3-Nitro-6-(piperidin-1-yl)imidazo[1,2-b]pyridazine] | > 64 | 3.6 ± 0.8 |  | > 64 | > 64 | 28100 | 32.3 ± 1.1 |  |  |  |  |
| c1cn2nc(N3CCCCC3)ccc2n1 [Compound 31, 6-(Piperidin-1-yl)imidazo[1,2-b]pyridazine] | > 64 | > 10000 |  | > 64 | > 64 | > 64000 | 38.4 ± 3.2 |  | inactive | > 2,500 folds |  |
| O=[N+]([O-])c1cnc2ccc(N3CCCC3)nn12 [Compound 22, 3-Nitro-6-(pyrrolidin-1-yl)imidazo[1,2-b]pyridazine] | > 64 | 2.3 ± 0.4 |  | > 64 | > 64 | > 64000 | > 64 |  |  |  |  |
| COc1ccc(CN(C)c2ccc3ncc([N+](=O)[O-])n3n2)cc1 [Compound 30, N-(4-Methoxybenzyl)-N-methyl-3-nitroimidazo[1,2-b]pyridazin-6-amine] | 46.9 ± 5.5 | 10.3 ± 1.5 |  | > 64 | > 64 | > 64000 | 29.7 ± 5.7 |  |  |  |  |
| O=[N+]([O-])c1cnc2ccc(N3CCC(Cc4ccccc4)CC3)nn12 [Compound 28, 6-(4-Benzylpiperidin-1-yl)-3-nitroimidazo[1,2-b]pyridazine] | > 64 | 0.5 ± 0.1 |  | 23.4 ± 7.2 | 27.6 ± 4.2 | 7960 | 8.6 ± 0.2 |  |  |  | 8000 ± 200 |
| COc1cccc(COc2cc(C3=NN(C4CCN(c5ccc6ncc([N+](=O)[O-])n6n5)CC4)C(=O)[C@H]4CC=CC[C@@H]34)ccc2OC)c1 (relative stereo) [Compound 14, cis-4-(4-Methoxy-3-((3-methoxybenzyl)oxy)phenyl)-2-(1-(3-nitroimidazo[1,2-b]pyridazin-6-yl)piperidin-4-yl)-4a,5,8,8a-tetrahydrophthalazin-1(2H)-one] | 32.5 | 1 ± 0.5 |  | 0.7 ± 0.5 | > 64 | > 64000 | 31.8 ± 12.1 |  |  |  |  |
| COc1ccccc1COc1cc(C2=NN(C3CCN(c4ccc5ncc([N+](=O)[O-])n5n4)CC3)C(=O)[C@H]3CC=CC[C@@H]23)ccc1OC (relative stereo) [Compound 16, cis-4-(4-Methoxy-3-((2-methoxybenzyl)oxy)phenyl)-2-(1-(3-nitroimidazo[1,2-b]pyridazin-6-yl)piperidin-4-yl)-4a,5,8,8a-tetrahydrophthalazin-1(2H)-one] | 30.6 ± 2.3 | 2.8 ± 0.8 |  | 1.1 ± 0.5 | 1.4 ± 0.4 | 49000 | 11.2 ± 7.9 |  |  |  | 48900 ± 21400 |
| O=[N+]([O-])c1cnc2ccc(N3CCC(N4CCCC4)CC3)nn12 [Compound 25, 3-Nitro-6-(4-(pyrrolidin-1-yl)piperidin-1-yl)imidazo[1,2-b]pyridazine formate] | > 64 | 5.8 ± 0.9 |  | > 64 | > 64 | > 64000 | 39.9 ± 3.7 |  |  |  |  |
| Cc1ccc(C(=O)Nc2ccc(S(=O)(=O)O)c3cc(S(=O)(=O)O)cc(S(=O)(=O)O)c23)cc1NC(=O)c1cccc(NC(=O)Nc2cccc(C(=O)Nc3cc(C(=O)Nc4ccc(S(=O)(=O)O)c5cc(S(=O)(=O)O)cc(S(=O)(=O)O)c45)ccc3C)c2)c1 [Suramine, suramin, reference compound] |  |  |  |  | 0.05 ± 0.02 |  |  |  |  |  |  |
